# Data taken from patent publication US8609636B2, “Oxime derivatives as sphingosine 1-phosphate (S1P) receptor modulators” (Allergan, Inc., priority 2010, dated 2013).
# Molecular target: T1, human S1P1 receptor (Homo sapiens, UniProt P21453)
# T1 construct: expressed in transfected cells; membranes used
# Experiment: GTP γ35S binding assay for S1P1 activity
# Assay type: biochemical
# Conditions: activity potency, S1P1 receptor from GTP γ35S binding; membranes, test range 0.08 to 5,000 nM
# Protocol: Compounds were synthesized and tested for S1P1 activity using the GTP γ^35S binding assay. These compounds may be assessed for their ability to activate or block activation of the human S1P1 receptor in cells stably expressing the S1P1 receptor.
# GTP γ^35S binding was measured in the medium containing (mM) HEPES 25, pH 7.4, MgCl2 10, NaCl 100, dithitothreitol 0.5, digitonin 0.003%, 0.2 nM GTP γ^35S, and 5 μg membrane protein in a volume of 150 μl. Test compounds were included in the concentration range from 0.08 to 5,000 nM unless indicated otherwise. Membranes were incubated with 100 μM 5′-adenylylimmidodiphosphate for 30 min, and subsequently with 10 μM GDP for 10 min on ice. Drug solutions and membrane were mixed, and then reactions were initiated by adding GTP γ^35S and continued for 30 min at 25° C. Reaction mixtures were filtered over Whatman GF/B filters under vacuum, and washed three times with 3 mL of ice-cold buffer (HEPES 25, pH7.4, MgCl2 10 and NaCl 100). Filters were dried and mixed with scintillant, and counted for ^35S activity using a β-counter. Agonist-induced GTP γ^35S binding was obtained by subtracting that in the absence of agonist. Binding data were analyzed using a non-linear regression method. In case of antagonist assay, the reaction mixture contained 10 nM S1P in the presence of test antagonist at concentrations ranging from 0.08 to 5000 nM.
# T1 sequence (P21453 whole entry): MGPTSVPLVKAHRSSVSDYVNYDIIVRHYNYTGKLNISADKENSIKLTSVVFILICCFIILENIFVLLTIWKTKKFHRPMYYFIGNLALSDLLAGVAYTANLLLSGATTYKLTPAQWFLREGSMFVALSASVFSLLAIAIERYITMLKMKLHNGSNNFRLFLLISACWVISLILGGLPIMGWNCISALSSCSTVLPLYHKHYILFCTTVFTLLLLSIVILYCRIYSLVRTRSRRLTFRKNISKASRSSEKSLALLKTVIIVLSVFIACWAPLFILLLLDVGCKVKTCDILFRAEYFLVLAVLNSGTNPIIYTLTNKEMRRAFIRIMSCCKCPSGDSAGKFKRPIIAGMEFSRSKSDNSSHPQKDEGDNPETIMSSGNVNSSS
row,SMILES,EC50 [nM]
1,"C/C(=N\OCC(Cc1ccc(C)c(C)c1)c1cccc(C)c1)c1ccc(CNCCC(=O)O)cc1 (stereo not shown) [Compound 1, 3-[(4-{(1E)-N-[3-(3,4-dimethylphenyl)-2-(3-methylphenyl)propoxy]ethanimidoyl}benzyl)amino]propanoic acid]",43.2
2,"C/C(=N\OCC(Cc1ccc(C)c(C)c1)c1cccc(C)c1)c1ccc(CNCCCP(=O)(O)O)cc1 (stereo not shown) [Compound 2, {3-[(4-{(1E)-N-[3-(3,4-dimethylphenyl)-2-(3-methylphenyl)propoxy]ethanimidoyl}benzyl)amino]propyl}phosphonic acid]",23.4
3,"C/C(=N\OCC(Cc1ccc(C)c(C)c1)c1cccc(Cl)c1)c1ccc(CNCCC(=O)O)cc1 (stereo not shown) [Compound 3, 3-[(4-{(1E)-N-[2-(3-chlorophenyl)-3-(3,4-dimethylphenyl)propoxy]ethanimidoyl}benzyl)amino]propanoic acid]",15.6
4,"C/C(=N\OCC(Cc1ccc(C)c(C)c1)c1cccc(Cl)c1)c1ccc(CNCCCP(=O)(O)O)cc1 (stereo not shown) [Compound 4, {3-[(4-{(1E)-N-[2-(3-chlorophenyl)-3-(3,4-dimethylphenyl)propoxy]ethanimidoyl}benzyl)amino]propyl}phosphonic acid]",3.51
5,"C/C(=N\OCc1ccc(CNCCCP(=O)(O)O)cc1)C(Cc1ccc(C)c(C)c1)c1cccc(Cl)c1 (stereo not shown) [Compound 5, [3-({4-[({[(1E)-2-(3-chlorophenyl)-3-(3,4-dimethylphenyl)-1-methylpropylidene]amino}oxy)methyl]benzyl}amino)propyl]phosphonic acid]",2.2
6,"C/C(=N\OCc1ccc(CNCCCP(=O)(O)O)cc1)C(Cc1ccc(C)c(C)c1)c1cc(F)cc(F)c1 (stereo not shown) [Compound 6, [3-({4-[({[(1E)-2-(3,5-difluorophenyl)-3-(3,4-dimethylphenyl)-1-methylpropylidene]amino}oxy)methyl]benzyl}amino)propyl]phosphonic acid]",0.88
7,"C/C(=N\OCc1ccc(CNCCC(=O)O)cc1)C(Cc1ccc(C)c(C)c1)c1cc(F)cc(F)c1 (stereo not shown) [Compound 7, 3-({4-[({[(1E)-2-(3,5-difluorophenyl)-3-(3,4-dimethylphenyl)-1-methylpropylidene]amino}oxy)methyl]benzyl}amino)propanoic acid]",6.8
8,"C/C(=N\OCc1ccc(CNCCCP(=O)(O)O)cc1)C(Sc1ccc(C)c(C)c1)c1cccc(Cl)c1 (stereo not shown) [Compound 10, {3-[(4-{[({(1E)-2-(3-chlorophenyl)-2-[(3,4-dimethylphenyl)thio]-1-methylethylidene}amino)oxy]methyl}benzyl)amino]propyl}phosphonic acid]",8.34
9,"C/C(=N\OCC(Oc1ccc(C)c(C)c1)c1cccc(Cl)c1)c1ccc(CNCCC(=O)O)cc1 (stereo not shown) [Compound 14, 3-[(4-{(1E)-N-[2-(3-chlorophenyl)-2-(3,4-dimethylphenoxy)ethoxy]ethanimidoyl}benzyl)amino]propanoic acid]",216
10,"C/C(=N\OCC(Oc1ccc(C)c(C)c1)c1cccc(Cl)c1)c1ccc(CNCCCP(=O)(O)O)cc1 (stereo not shown) [Compound 15, {3-[(4-{(1E)-N-[2-(3-chlorophenyl)-2-(3,4-dimethylphenoxy)ethoxy]ethanimidoyl}benzyl)amino]propyl}phosphonic acid]",11.4
